# In US11815435B2, “Beta glucan immunopharmacodynamics” (HiberCell, Inc., priority 2017, dated 2023):
# Legend:
# Type in all cases: in vivo, human
# [1] = tested on: complement activation products, C5a and SC5b-9; test: Complement activation in plasma by ELISA after IV PGG; settings: healthy subjects, single dose PGG IV
# Description: IPD changes induced by yeast soluble β-glucan were evaluated in a Phase I healthy donor trial, which included three cohorts of 12 healthy human volunteers aged 18-65 years. In Cohort 1, subjects were administered a single dose of 4 mg/kg yeast soluble β-glucan by IV infusion over 2-3 hours. In Cohort 2, subjects were administered 4 mg/kg PGG by IV infusion over 2-3 hours once weekly for 3 weeks. Half of the subjects received premedications which included low dose corticosteroids (4 mg of dexamethasone, PO) and low-dose H1 antagonists (50 mg diphenhydramine.
# Subjects were stratified/classified into subgroups based on pre-infusion ABA levels. ABA cutoff levels were selected based on prior studies and are only exemplary. Classification may include only 2 subgroups based on an IgG ABA cutoff level of 15 μg/ml, 20 μg/ml, 25, μg/ml, 30 μg/ml, 35 μg/ml, 40 μg/ml, 45 μg/ml or 50 μg/ml. […] Serum and cellular IPD markers were analyzed pre-infusion, 15 minutes, 30 minutes and 1 hour post-infusion, end of infusion (EOI) and 1 hour, 2 hours, 3 hours, 4 hours, 24 hours, 48 hours and 168 hours after EOI.
# Levels of complement activity, measured by […] (Quidel) in plasma, were determined by measuring complement activation products, C5a and SC5b-9. Levels were measured week 1 pre-infusion, 15 minutes, 30 minutes and 1 hour post-infusion, EOL 1 hour EOI and week 2 pre-infusion. […]
# [2] = tested on: anti-β-glucan antibody (ABA IgG, ABA IgM); test: Example 1: IgG and IgM ABA levels in a cancer subject on IVIG, IMPRIME PGG and pembrolizumab; settings: same subject and regimen
# Description: Soluble β-glucan immunotherapy was administered to a subject diagnosed with glucaganoma. The subject's ABA level prior to immunotherapy treatment placed them in the Low-ABA subgroup, and therefore, their ABA level was boosted by administration of IVIG. GAMMAGARD at 100 mg/ml was intravenously administered prior to each treatment, which provided 161 μg ABA/ml. […] Each cycle was 3 weeks.
# [3] = tested on: intermediate monocytes; switched memory B cells and plasmablasts; test: Flow cytometry of PBMC for monocyte populations, activation markers and B cells
# Description: Here, PBMC were stained with indicating markers and analyzed by flow cytometry. Each of the populations were assessed for expression of activation markers CD86, ICAM-1, HLA-DR and PD-L1 24 hours after infusion. In addition, approximately one week post-infusion, increased switched memory B cells and plasmablasts were detected (data not shown).
# [4] = tested on: IPD responses (SC5b-9, monocyte and neutrophil mobilization, MCP-1, CIC, IL-8); test: Immunopharmacodynamic (IPD) responses taken together: dose and dosing interval comparison; settings: for IPD response: mid ABA (20-50 μg/ml) subjects
# Description: In Cohort 3, subjects received either 2 mg/kg PGG or 4 mg/kg PGG by IV infusion over 1-2 hours. The subjects were administered either dose of PGG once weekly for 2 weeks, then given a 2 week wash out (no PGG) and finally received one more dose of PGG (week 5). Adverse events and complete blood counts were evaluated. In addition, whole blood and serum was evaluated for the following at various time points post-infusion: PGG binding to immune cells (monocytes, neutrophils, B-cells, DC subsets), complement activation (C5a and Sc5b9), serum cytokine/chemokine levels, IgG ABA levels, flow cytometry of immune cells, circulating immune complex formation and Quantigene analysis of transcriptional profile. Table 1 lists each subject's pre-dose IgG ABA levels, PGG dose and whether they received premedications.
# Thus, changes in IPD responses induced by PGG administration are dependent on ABA levels.
# IPD responses were compared between subjects within subgroups administered doses of either 2 mg/kg and 4 mg/kg PGG. […] Therefore, an effective dose of PGG for Mid-ABA subjects is higher than an effective dose of PGG for High-ABA subjects. This is beneficial to High-ABA subjects because with a lower PGG dose, they will experience fewer adverse events.
# Increasing the time between soluble β-glucan doses may not only promote repeated acute IPD responses but also enhance acute IPD responses, which may increase the effectiveness of soluble β-glucan therapy. Subjects in Cohort 3, as described above, were administered a dose of PGG once weekly for 2 weeks, then given a 2 week wash out (no PGG) and finally received one more dose of PGG (week 5).
# Levels of CIC (FIG. 19), SC5b-9 (FIG. 20), neutrophil mobilization (FIG. 21), IL-8 (FIG. 22) and MCP-1 (FIG. 22) were also measured over the course of treatment. […] In some cases, acute IPD responses were only seen with the final dose—after the 2 week dosing interval. In other cases, the acute IPD responses were enhanced with the final dose. Thus, for some immunotherapies or even some individuals, increasing the amount of time between dosing with soluble β-glucan may lead to enhanced efficacy.
# [5] = tested on: SC5b-9; test: Example 1: complement activation (SC5b-9) in the cancer subject; settings: cancer subject after conversion to High-ABA subgroup; IMPRIME PGG 4 mg/kg once every 3 weeks
substance,measurement,setting,value
"β(1,6)-[poly-(1,3)-D-glucopyranosyl]-poly-β(1,3)-D-glucopyranose [PGG]",increase in complement activation (SC5b-9 levels),[1],correlated with ABA levels with levels peaking at EOI
same,ABA IgG,"[2]; cycle 1, day 2 EOI IMPRIME",17.9 µg/mL
same,ABA IgM,"[2]; cycle 1, day 2 EOI IMPRIME",6.0 µg/mL
same,ABA IgG,"[2]; cycle 1, day 3",14.5 µg/mL
same,ABA IgM,"[2]; cycle 1, day 3",8.3 µg/mL
same,ABA IgG,"[2]; cycle 1, day 9",10.2 µg/mL
same,ABA IgM,"[2]; cycle 1, day 9",10.1 µg/mL
same,ABA IgG,"[2]; cycle 2, day 1 EOI-IMPRIME",50.4 µg/mL
same,ABA IgM,"[2]; cycle 2, day 1 EOI-IMPRIME",11.7 µg/mL
same,ABA IgG,"[2]; cycle 2, day 1 pre-IVIG",22.3 µg/mL
same,ABA IgM,"[2]; cycle 2, day 1 pre-IVIG",18.5 µg/mL
same,ABA IgG,"[2]; cycle 3, day 1 EOI-IMPRIME",57.4 µg/mL
same,ABA IgG,"[2]; cycle 3, day 1 pre-IVIG",21.9 µg/mL
same,appearance of intermediate monocytes and activation markers,"[3]; 24 hrs after EOI, High-ABA subjects","a population of intermediate monocytes expressing higher levels of the activation markers CD86, PD-L1 and HLA-DR was observed"
same,switched memory B cells and plasmablasts,"[3]; approximately one week post-infusion, data not shown",increased
same,"acute IPD responses (CIC, SC5b-9, neutrophil mobilization, IL-8, MCP-1)","[4]; Cohort 3, dosing after a 2 week dosing interval",generated or enhanced
same,changes in IPD responses,"[4]; low-ABA subjects, PGG administration",very little to no changes in responses
same,IPD response,[4]; 2 mg/kg PGG,minimal response
same,IPD response,[4]; 4 mg/kg PGG,responded much better (on par with High-ABA subjects)
same,"IPD responses, 2 mg/kg vs 4 mg/kg dose",[4]; subjects with ABA>50 μg/ml,similar
same,complement activation (SC5b-9 levels),[5],Acute increases in complement activation
